From patent publication US4316022A, “Benzo-as-triazine derivatives” (priority 1979, dated 1982) come the findings set out here.

Each structure is given as a SMILES string. Read-outs that look alike come from different tables or passages of the source.

One series in a line: in vivo. The following applies: mouse, po. As to the method: The toxicity of the new compounds according to the invention was determined on mice after oral administration. The chemical names of the reference compounds are as follows: […]
A further series relates to narcosis. As to the kind of experiment: narcosis potentiating effect on mice, method of Kaergaard. In kind it is in vivo. As to conditions: for ED50: Mus musculus, read-out: ED50 (narcosis potentiating effect). As to the method:
The narcosis potentiating effect was determined on mice by the method of Kaergaard (Arch. Int. Pharmacodyn. 2, 170/1967/).

Series [1] relates to carrageenin-provoked paw oedema. As to the kind of experiment: antiphlogistic (oedema-inhibiting) effect, carrageenin paw oedema on rats. In kind it is in vivo. As to conditions: for ED30: Rattus norvegicus, read-out: ED30 (antiphlogistic effect); for Therapeutical index (antiphlogistic effect): carrageenin paw oedema. As to the method: The antiphlogistic (oedema-inhibiting) effect was tested on rats. 0.1 ml of a 1% carrageenin solution were injected into the plantar region of one of the hind paws. The volume of the paw was measured just before and 3 hours after the introduction of the oedema-provoking agent by a mercury plethysmometer.
In general terms: In the carrageenan paw model, swelling and tenderness develop within hours.

A further series relates to acetic acid writhing. In words: analgesic effect, acetic acid writhing test on mice. In kind it is in vivo. The following applies: for ED50: Mus musculus, read-out: ED50 (analgesic effect); for Therapeutical index (analgesic effect): writhing test.
The mark [2] stands for this setting: rats, dosage inhibiting inflammation by 30%, 3 hours after carrageenin.
Where [3] appears, read: mice, oral, acetic acid given 1 h after treatment, writhings counted within 5 minutes.

Experimental for acetic acid writhing: The analgesic effect of the new compounds according to the invention was determined on mice by the acetic acid writhing test.

With `CCCC(C)(COC(N)=O)COC(N)=O` [Meprobamate, 2-methyl-2-propyl-1,3-propanediol dicarbamate, reference compound], the LD50 (as a rule, the dose at which mortality reaches 50%) in the series “in vivo” is 1100 mg/kg. Also, the ED50 (in general, the dose at which the effect has come halfway, by size or by number of responders) in the series on narcosis came out at 260 mg/kg. For the same molecule, the “Therapeutical index (narcosis potentiating effect)” value with narcosis (mice, method of Kaergaard) stood at 4.2.

In “in vivo”, `CCCc1c(O)n2c3nncn3c3ccccc3n2c1=O` [Example 11, 1-oxo-3-hydroxy-2-n-propyl-pyrazolo[1,2-a]-s-triazolo-[3,4-c]benzo-as-triazine] returned an LD50 of 2000 mg/kg.

Take `CCCCC1C(=O)N(c2ccccc2)N(c2ccccc2)C1=O` [Phenylbutazone, 4-butyl-1,2-diphenyl-3,5-pyrazolidinedione, reference compound]: the ED30 in series [1] (setting [2]) is 90 mg/kg.

The molecule `CC(=O)Oc1ccccc1C(=O)O` [Acetylsalicylic acid, reference compound] gave an LD50 in the series “in vivo” of 1500 mg/kg. In addition, in series [1] (3 h), the ED30 came to 180 mg/kg. The “Therapeutical index (antiphlogistic effect)” value in series [1] (rats) amounted to 8.33.

In “in vivo”, `CCC(=O)N1Nc2nncn2-c2ccccc21` [Example 4, 5-propionyl-4,5-dihydro-s-triazolo[3,4-c]benzo-as-triazine] showed an LD50 of 1750 mg/kg. Besides, the 50% effective dose (ED50) came out at 175 mg/kg with acetic acid writhing (setting [3]) and 140 mg/kg in the series with narcosis (mice, method of Kaergaard). Further, the “Therapeutical index (analgesic effect)” value in the series with acetic acid writhing (mice, oral) came out at 10. In series [1] (setting [2]), the ED30 is 22 mg/kg. Also, the “Therapeutical index (antiphlogistic effect)” value in series [1] (rats) is 79.55. Besides, in the series on narcosis (mice, method of Kaergaard), the “Therapeutical index (narcosis potentiating effect)” value came to 13.

In the case of `CCC(=O)N1c2ccccc2-n2c(SC)nnc2N1C(=O)CC` [Example 5, 1-methylthio-4,5-dipropionyl-4,5-dihydro-s-triazolo[3,4-c]benzo-as-triazin], in the series “in vivo”, the median lethal dose (LD50) turned out to be 1000 mg/kg. Moreover, the 50% effective dose (ED50) with acetic acid writhing (setting [3]) came to 100 mg/kg. For the same molecule, the “Therapeutical index (analgesic effect)” value in the series with acetic acid writhing (mice, oral) came to 10. Moreover, in the series with narcosis (mice, method of Kaergaard), the 50% effective dose (ED50) turned out to be 140 mg/kg and the “Therapeutical index (narcosis potentiating effect)” value is given as 7.

Consider `CC(=O)N1c2ccccc2-n2cnnc2N1C(C)=O` [Example 1, 4,5-diacetyl-4,5-dihydro-s-triazolo-[3,4-c]benzo-as-triazine], for which, in the series “in vivo”, the LD50 worked out at 1100 mg/kg. Besides, the ED30 in series [1] (setting [2]) worked out at 110 mg/kg. The “Therapeutical index (antiphlogistic effect)” value in series [1] (rats) is listed as 10. Further, in the series on narcosis (mice, method of Kaergaard), the ED50 stood at 75 mg/kg and the “Therapeutical index (narcosis potentiating effect)” value came out at 15.

Molecule `CCC(=O)N1c2ccccc2-n2cnnc2N1C(=O)CC` [Example 3, 4,5-dipropionyl-4,5-dihydro-s-triazolo[3,4-c]benzo-as-triazine] had a median lethal dose (LD50) in “in vivo” of 2000 mg/kg. In addition, in the series on acetic acid writhing (setting [3]), the 50% effective dose (ED50) amounted to 200 mg/kg. Besides, the “Therapeutical index (analgesic effect)” value in the series with acetic acid writhing (mice, oral) was determined as 10. Besides, in the series on narcosis (mice, method of Kaergaard), the median effective dose (ED50) came to 80 mg/kg and the “Therapeutical index (narcosis potentiating effect)” value is given as 25.

Take `CC(=O)Nc1ccc(O)cc1` [Paracetamol, N-(hydroxyphenyl)acetamide, reference compound]: the ED50 in the series on acetic acid writhing (po) worked out at 180 mg/kg.
